Structure (SMILES) | melting point [°C]
COC(=O)CC[C@@H](Cc1cn(Cc2ccccc2)c2ccccc12)NC(=O)CCCCCCc1ccccc1 | 107 to 109
Cc1nc2c(OCc3c(Cl)ccc(N(C)C(=O)CN4C(=O)c5ccccc5C4=O)c3Cl)cccc2n1C | 226 to 227
Nc1nc(-c2ccccc2)nc2c1ncc(=O)n2C1CC(O)C(CO)O1 (stereo not given) | 169 to 172
O=C1NCCc2c1c1cccc3c1n2CC3 | 265 to 267
S=c1[nH]cnc2c(Br)csc12 | 328
CC(=O)O[C@H]1CC[C@H](c2ccc(I)cc2)CC1 | 84.4 to 85.4
Cc1c(C)c2c(c(C)c1NC(=O)CC(C)(C)C)C(c1ccc(C=O)cc1)CO2 (stereo not given) | 195 to 196
CC(C)(C)OC(=O)N[C@H]1CCc2ccc(OCCCC(=O)O)cc2C1 | 150 to 153
COc1cc2[nH]c(=O)c(-c3csc(-c4ccncc4)n3)c(N)c2cc1OC | > 250
Cn1cc(-c2cc(OC3CCCC3)c(Cl)cc2F)c(=O)cc1C(F)(F)F | 152 to 154
Cc1c(-c2ccc(F)cc2)oc2c(-c3ccc(F)cc3)c(-c3ccc(S(C)(=O)=O)cc3)nn12 | 257 to 259
CN(C(=O)c1cc2ccccc2c(-c2ccccc2Cl)n1)C1CCCCC1 | 131
O=C(O)Cc1cc2c(c(-c3ccccc3)c1)NC(C(F)(F)F)CC2 (stereo not given) | 131 to 132
COc1c(C)cc(C)cc1C(=O)O | 97 to 98
O=C(O)CCCCCCCCCCC(=O)c1ccccc1 | 83 to 86
Cc1c(F)cc(C(=O)O)c(Cl)c1N | 182 to 184
CCOC(=O)c1cn(-c2nsnc2C)c2nc(Cl)c(F)cc2c1=O | 192
c1cc2c(cc1NC1=NCCN1)CCC2 | 41 to 42
Nc1nc2n(C3OC(CO)C(O)C3O)[nH]cc-2c(=S)n1 (stereo not given) | 222 to 224
O=c1c(-c2ccccn2)c(O)c2cccnc2n1-c1ccccc1 | 332 to 333
COC(=O)C1=C(O)c2cc(Cl)sc2S(=O)(=O)N1 | 173 to 174
CC(C)(O)COc1c(-c2ccc(S(C)(=O)=O)cc2)cnn(-c2ccc(F)cc2)c1=O | 152 to 154
CCOC(=O)c1c(=O)c2cc3c(cc2n2c(C)csc12)OCO3 | 308 to 311
CCOc1ccc(C2C(C(=O)c3ccc(C(C)C)cc3)=C(O)C(=O)N2c2ccc(C)nn2)cn1 (stereo not given) | 274 to 276
Cc1ccc(S(=O)(=O)Nc2cc3c(c(C(=O)O)c2)NC(c2ccccc2)CC3)cc1 (stereo not given) | 219 to 220

Structure (SMILES) | melting point [°C]
C=Cc1ccc(-c2ccc(OC(C)CCCCCC)cc2)cc1 (stereo not given) | 80.6
O=[N+]([O-])c1c(Br)nn(CC(O)CO)c1NCc1ccccc1 (stereo not given) | 90.1
O=C1CCC2(CCC(=O)N2c2ccc(Cc3ccc(N4C(=O)CCC45CCC(=O)O5)cc3)cc2)O1 (stereo not given) | 135
CCN(CC)C(=O)C(=NNc1ccccc1)C(C)=O | 63 to 65
COc1cc(NC(NC(C)C(C)(C)C)=C(C#N)S(=O)(=O)c2ccc(Cl)cc2)cc(OC)c1 (stereo not given) | 178 to 179
O=[N+]([O-])c1ccc(-c2cccs2)cc1-c1cccs1 | 111 to 112
N#Cc1ccc(-c2ccc(C=O)cc2)c(OCc2ccccc2)c1 | 131 to 132
Cc1cc2c(c(OCC(=O)c3ccc(C(C)C)cc3)c1)CCC2 | 68 to 69
O=C(O)c1ccc(CNc2cc(Br)ccc2OCc2ccccc2)cc1 | 216 to 217
c1ccc(Cc2cnc(N3CCN(c4nc(-c5ccccc5)nc5ccccc45)CC3)nc2)cc1 | 135 to 137
CCN(c1ccc(OCc2ccc(OC(F)(F)F)cc2)cc1)C1CCN(c2ccc(OC[C@H]3CCn4cc([N+](=O)[O-])nc4O3)cc2)CC1 | 95.2 to 97
O=C(Cn1c(-c2ccc(Cl)cc2)nc2ncccc21)c1ccccc1 | 262 to 263
CCOC(=O)CCc1oc(-n2ccnc2)nc1-c1ccc(Cl)cc1 | 67 to 68
CC(C)(C)OC(=O)NN1CCN([Si](C)(C)C)C1=O | 132
COc1cc2c(cc1OC)CN(CCCc1cccc(NC(=O)c3cccc4c(=O)c5cccc(OC)c5[nH]c34)c1)CC2 | 138 to 140
CCCCCCCCc1ccc(-c2ncc(O)cn2)cc1 | 147 to 149
CSc1nc(N2CCc3ccccc3CC2)c(C#N)c2nncn12 | > 200
Cc1ccc(-c2[nH]c(-c3ccccc3)nc2C(=O)Nc2nc(-c3ccccc3)cs2)cc1 | 274 to 276
COc1cc(CNC(=O)c2nc3cnn(CCOc4ccc(C(=O)O)cc4)c3c(=O)[nH]2)ccc1F | 228 to 230
COc1ccc(Oc2ccc(C(=O)CC(SC(C)=O)C(=O)O)cc2)cc1 (stereo not given) | 110 to 111
Cc1nc(-c2ccc(-c3ccc(C(=O)Nc4ccc5c(c4)OC(CN(C)C)CO5)cc3)c(C)c2)no1 (stereo not given) | 92 to 94
COc1cccc(COc2ccc3c(c2)C=C(C(=O)O)CCS3(=O)=O)c1 | 220 to 222
O=C(c1ccc(F)cc1)C1CCN(CCCN2c3cccc4cccc(c34)S2(=O)=O)CC1 | 132
CC(=O)N1CCN(c2nc(N)ccc2[N+](=O)[O-])CC1 | 202 to 203
CCCCCCCCCCCCCCOc1ccc(CNc2cccc(CO)c2)cc1 | 72 to 75

Source: a melting point compilation (Tetko et al.; mined from patent text by program, amines drawn as free bases though some values may be those of a salt)
